Measurements from patent US20230364074A1, “Compounds and Compositions for Disrupting Programmed Ribosomal Frameshifting” (YALE UNIVERSITY, priority 2020, published 2023).

Key:
[1] = tested on: −1 PRF of HCoV-HKU1; test: cells; format: cell-based; details: read-out: IC50 of −1 PRF inhibition, HCoV-HKU1
[2] = tested on: −1 PRF of HCoV-OC43; test: microbe, parasite or virus in culture; format: cell-based; details: Betacoronavirus 1, OC43, read-out: IC50 of −1 PRF inhibition, HCoV-OC43
[3] = tested on: SARS-CoV-2 FSE (−1 PRF); test: cells; format: cell-based; details: Severe acute respiratory syndrome coronavirus 2, HEK-293T, 24 h
[4] = tested on: HEK293T cells; details: HEK293T (FIG. 2N)
[5] = tested on: HEK293T cells; format: cell-based
[6] = tested on: two-stem pseudoknot FSE of IBV; format: cell-based, avian coronavirus infectious bronchitis virus (IBV); details: 20 μM merafloxacin (FIG. 2E)
[7] = tested on: −1 PRF of hCoV-229E; format: cell-based; details: 20 μM merafloxacin (FIG. 2E)
[8] = tested on: HEK293T cells; test: Cell viability in the high-throughput screen (cell nuclei numbers); details: 10 μM compound, cell nuclei numbers
Description: HEK293T cells were plated in 384 well plates at the density of 5,000 cells/well. Cells were treated by 10 μM candidate compounds 30 min before transfection of 15 ng mCherry-FSE-GFP(−1) plasmid DNA in each well. 24 hours after transfection, cell nuclei were stained with Hoechst dye. Cell nuclei, mCherry, and GFP signals were imaged using an automated fluorescent microscope with a 10x objective, and the acquired images were quantified using the CellProfiler image analysis package. Cell nuclei numbers were quantified as the metric for cell viability. Mean GFP and RFP intensity values were measured in all transfected cells, and GFP/mCherry mean intensity ratios were quantified as the metric for PRF efficiency. The mCherry-GFP fusion plasmid and the mCherry-FSE-GFP(0) plasmid were used as positive and negative controls for elevated and reduced GFP/mCherry ratios, respectively.

[9] = tested on: SARS-CoV-2; test: Viral plaque assay, SARS-CoV-2 in Vero E6 cells; format: cell-based; details: Severe acute respiratory syndrome coronavirus 2, Vero C1008
[10] = tested on: −1 PRF of WNV; format: cell-based, west nile virus (WNV)
[11] = tested on: SARS-CoV-2 nsp12 / nsp8; format: cell-based
[12] = tested on: HCoV-OC43; test: Viral plaque assay, HCoV-OC43 in MA104 cells; format: cell-based; details: MA104 cells (FIGS. 6G-6H)
Description: Plaque formation assays for SARS-CoV-2, HCoV-229E, and HCoV-OC43 were performed in Vero E6, HuH-7.5, and MA104 cells (ATCC), respectively. Briefly, cells were seeded at 2-4×10^5 cells/well in 12-well plates. The following day, cells were incubated with viral stock (multiplicity of infection [MOI]=0.05) for 1 h and washed twice with PBS. Merafloxacin diluted in DMSO was added to the media, mixed briefly, and incubated at 37° C. After 2 d, media were collected, centrifuged, and supernatants were stored at −80° C. To quantify viral titers, the collected media were first serially diluted 10-fold with fresh media. Two hundred microliters of each dilution were added to near-confluent cells in six-well plates and incubated at 37° C. for 1 h with gentle rocking. Subsequently, overlay media (DMEM, 2% FBS, 0.6% Avicel RC-581) was added to each well. After 3 d, cells were fixed with 10% formaldehyde for 30 min, stained with crystal violet for 30 min, and rinsed with deionized water to visualize plaques.

[13] = tested on: Vero E6 cells; details: Vero E6 cells (FIG. 6B)
[14] = tested on: −1 PRF of SARS-CoV-2; test: microbe, parasite or virus in culture; format: cell-based
[15] = tested on: −1 PRF of human PEG10 mRNA; format: cell-based
[16] = tested on: −1 PRF of EAV; format: cell-based, equine arteritis virus (EAV)
[17] = tested on: −1 PRF of hCoV-NL63; format: cell-based; details: 20 μM merafloxacin (FIG. 2E)
[18] = tested on: −1 PRF of HIV-1; format: cell-based, human immunodeficiency virus 1 (HIV-1)
[19] = tested on: −1 PRF of SARS-CoV; test: microbe, parasite or virus in culture; format: cell-based; details: Severe acute respiratory syndrome coronavirus, read-out: IC50 of −1 PRF inhibition, SARS-CoV
[20] = tested on: HIV-1 (NL4-3-dNef-GFP); test: HIV-1 antiviral assay in Jurkat T cells; format: cell-based; details: Jurkat T cells (FIG. 7)
[21] = tested on: −1 PRF in SARS-CoV-2; details: prior art statement; cited from earlier work

## CCNCC1CCN(c2c(F)cc3c(=O)c(C(=O)O)cn(CC)c3c2F)C1 (stereo not shown) [merafloxacin, 1-ethyl-7-[3-(ethylaminomethyl)pyrrolidin-1-yl]-6,8-difluoro-4-oxoquinoline-3-carboxylic acid]
[1]
  IC50: 30 µM
[2]
  IC50: 39 µM
[3]; read-out: PERCENT EFFECT 2 (Decreased GFP/Red ratio)
  inhibition at 10 µM: 25%
[3]; read-out: PERCENT EFFECT (Increased GFP/Red Ratio)
  activation at 10 µM: -13%
[4]
  effect on cell viability: did not affect
[5]; 20 μM merafloxacin (FIG. 2F)
  effect on upstream FLuc translation: did not affect
[5]; 80 μM merafloxacin (FIG. 2H)
  effect on ribosome association of the reporter mRNA: did not affect
[5]; 80 μM merafloxacin for 24 hours (FIG. 2G)
  effect on global translation (polysome profiles): did not affect
[5]; FIG. 2M
  effect on reporter mRNA abundance: did not affect
[6]
  sensitivity of IBV FSE: largely insensitive
[7]
  activity against −1 PRF of hCoV-229E: much weaker activity
[8]
  PERCENT VIABILITY: 168.57%
[9]; read-out: EC50 of SARS-CoV-2 replication
  EC50: 2.6 µM
[9]; read-out: EC90 of SARS-CoV-2 replication
  EC90: 12 µM
[10]
  inhibition of −1 PRF of WNV: did not inhibit
[11]
  relative abundance between nsp12 and nsp8: substantially reduced
[12]
  antiviral activity against HCoV-OC43: showed antiviral activity
[13]
  cytotoxicity: without causing substantial cytotoxicity
[14]; Severe acute respiratory syndrome coronavirus 2, dose-dependent, FIG. 2C, read-out: IC50 of −1 PRF inhibition, SARS-CoV-2
  IC50: ~20 µM
[14]; in vitro transcribed RNAs (FIG. 2O)
  −1 PRF of in vitro-transcribed SARS-CoV-2 reporter mRNAs: inhibited
[14]; repurchased screen candidates
  validated effect on −1 PRF in dual luciferase-based PRF reporter assay: inhibitor
[15]
  inhibition of −1 PRF of human PEG10 mRNA: did not inhibit
[16]
  inhibition of −1 PRF of EAV: did not inhibit
[17]
  activity against −1 PRF of hCoV-NL63: much weaker activity
[18]
  inhibition of −1 PRF of HIV-1: did not inhibit
[19]
  IC50: ~20 µM
[20]
  antiviral activity against an HIV-1 reporter virus: no antiviral activity

## CCOC(=O)c1ccccc1NC(=O)N1CCCN(Cc2csc(C)n2)CC1 [MTDB]
[21]
  inhibition of −1 PRF in SARS-CoV-2 reporter assays: inhibit −1 PRF
